Patent US4546098A, “Estrogen synthesis inhibitors” (The Rockefeller University, priority 1984, dated 1985)

The compounds below were run against T1, aromatase (Homo sapiens, UniProt P11511) (assay: Inhibition of formic acid formation from [19,19,19-3H]androst-4-ene-3,17-dione by placental microsomes). Conditions: placental microsomes 1 mg/ml (5 ml), pH 7.2, 37° C., 30 minutes; inhibitor 4 n mole, androstenedione 4 n mole; NADPH.
T1 construct: incubated with 5 ml of a placental microsomes; from tissue; host or cells: placental microsomes
T1 sequence (P11511 1-503): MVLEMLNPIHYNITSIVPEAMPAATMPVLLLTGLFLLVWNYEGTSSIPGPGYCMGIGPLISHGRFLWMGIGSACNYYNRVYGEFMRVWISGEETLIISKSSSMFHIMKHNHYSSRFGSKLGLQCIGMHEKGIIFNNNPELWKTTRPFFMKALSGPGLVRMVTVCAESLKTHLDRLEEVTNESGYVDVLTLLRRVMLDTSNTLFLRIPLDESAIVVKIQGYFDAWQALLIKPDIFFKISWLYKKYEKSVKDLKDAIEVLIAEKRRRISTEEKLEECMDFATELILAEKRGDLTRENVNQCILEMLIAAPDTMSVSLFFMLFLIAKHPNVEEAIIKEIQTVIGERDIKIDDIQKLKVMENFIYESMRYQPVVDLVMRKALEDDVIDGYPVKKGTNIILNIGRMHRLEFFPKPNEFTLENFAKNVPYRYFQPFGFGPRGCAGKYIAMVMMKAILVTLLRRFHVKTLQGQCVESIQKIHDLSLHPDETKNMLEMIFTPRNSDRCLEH
Assay type: biochemical
Experimental: A mixture of [19,19,19-^3 H]androst-4-ene-3,17-dione diluted with cold androstenedione (2.8×10^6 dpm, 4 n mole) and an inhibitor (4 n mole) in ethanol (50 μl) was incubated with 5 ml of a placental microsomes (1 mg/ml of 0.05M tris-HCl, pH 7.2) in the presence of NADPH (5 mg), glucose-6-phosphate (2.5 mg), and glucose-6-phosphate dehydrogenase (3.1 units). The incubations were carried out at 37° C. for 30 minutes in air. A control incubation was carried out as above except that the inhibitor was excluded. The incubation mixture (1 ml) was mixed with 1M phosphoric acid (1 ml), flash frozen and lyophilized. Radioactivity in 0.5 ml of the distilled component was measured (A). And 1.2 ml of the distilled component was mixed with 0.3 ml of 1N sodium hydroxide, flash frozen, and lyophilized. Radioactivity in 0.5 ml of the distilled water was measured (B).

SMILES | % Inhibition of formic acid formation
C=C1C=C2CC[C@@H]3[C@H](CC[C@]4(C)[C@@H](O)CC[C@@H]34)[C@@]2(CO)CC1 [Cmpd 5, 3-methylene-androst-4-ene-17β,19-diol] | 55%
C=C1C=C2CC[C@H]3[C@@H]4CC[C@H](O)[C@@]4(C)CC[C@@H]3[C@@]2(C)CC1 [Cmpd. 1, 3-methylene-androst-4-ene-17β-ol] | 43%
C=C1C=C2CC[C@@H]3[C@H](CC[C@]4(C)C(=O)CC[C@@H]34)[C@@]2(C)CC1 [Cmpd. 3, 3-methylene-androst-4-ene-17-one] | 86%
C=C1C=C2CC[C@@H]3[C@H](CC[C@]4(C)C(=O)CC[C@@H]34)[C@@]2(CO)CC1 [Cmpd. 9, 3-methylene-androst-4-ene-19-ol-17-one] | 90%
C=C1C=C2CC[C@@H]3[C@H](CC[C@]4(C)C(=O)CC[C@@H]34)[C@@]2(C=O)CC1 [Cmpd. 53, 3-Methylene-androst-4-ene-17,19-dione] | 70%
